Reference: paper PMC11207729, “Unveiling Anticancer Potential of COX-2 and 5-LOX Inhibitors: Cytotoxicity, Radiosensitization Potential and Antimigratory Activity against Colorectal and Pancreatic Carcinoma” (Pharmaceutics, 2024)
Several values for one entry are separate records, joined by “and”; a condition that tells them apart may be missing. Identical values can stand only once. Entries after “also recorded” stand apart in the source; their conditions may differ.

How the values were obtained:
[1] = test system: HCT 116 cells; test: SRB assay, compound plus γ-radiation, HCT 116; type: cell-based, human; conditions: IC50 concentration 24 h before 2 Gy γ-radiation, SRB 72 h after irradiation
Method: (§1) In the experiments involving irradiation, cells were irradiated at room temperature, in the vertical position with the cell monolayer facing ^60Co γ-rays (CIRUS-Cis Biointernational). The irradiation of samples was performed in Vinča Institute of Nuclear Sciences, Belgrade, Serbia. In all experiments, a clinically relevant radiation dose of 2 Gy with the dose rate of ~1 Gy/min was applied. For the evaluation of cell viability after treatments with radiation as well as after combined treatments, a sulforhodamine B (SRB) protein binding assay was used. This assay is based on the staining of cellular proteins. Maintaining conditions were identical to that of MTT assay. The cells were pretreated with IC50 concentrations of tested compounds for 24 h before irradiations. Following the 72 h post-irradiation incubation time under standard conditions (5% CO2, 37 °C) cells were fixed by protein precipitation with 10% trichloroacetic acid (TCA) at 4 °C for 1 h. Plates were rinsed with distillated water and stained with 0.4% SRB (Sigma-Aldrich Chemie GmbH, Steinheim, Germany) in 1% acetic acid, for 15 min at room temperature. Excess stain was removed by washing the wells in 1% acetic acid. […] The absorbance of each well was measured using a microplate reader (Wallac VICTOR2 1420 Multilabel counter, PerkinElmer, Turku, Finland) at a test wavelength of 550 nm.

[2] = test system: SW620 cells; test: Cytotoxicity in SW620 cells after 24 h treatment (Table S2); type: cell-based; conditions: Homo sapiens, SW-620, read-out: IC50 (µM) following 24h treatment in SW620 cells
[3] = test system: HT-29 cells; test: MTT cytotoxicity assay, HT-29; type: cell-based, human; conditions: for IC50: Homo sapiens, HT-29, MTT, 72 h after treatment, mean ± SEM; for Selectivity index (IC50 normal cell line/IC50 cancer cell lines), HT-29: MRC-5 / HT-29, in brackets
Method: (§2) SW620 cells were cultured in Dulbecco’s Modified Eagle’s medium (DMEM, Sigma-Aldrich Chemie GmbH, Steinheim, Germany) and supplemented in the same manner as the previously mentioned cell lines. Cells were grown in cell culture flasks T25 (Sarstedt AG & Co., Nümbrecht, Germany) at appropriate cell densities in the culture medium prior to exposure to treatments. Stock solutions of each compound, prepared in DMSO, were diluted in the culture medium to obtain the appropriate final concentrations.
(§3) The viability of the control and cells treated with the tested compounds was determined by MTT assay. Cells were seeded in 96-well plates at a density of 2000 cells/well, allowed to attach overnight, and then treated with rising concentrations of testing compounds. The ability of viable cells to reduce 3-(4,5-dimethylthiazol-2-yl)-2,5-diphenyltetrazolium bromide into blue-purple formazan crystals, was measured 72 h after the treatments. Namely, l mg/mL of MTT reagent (Sigma-Aldrich Chemie GmbH, Steinheim, Germany) was added to each well and incubated for an additional 4 h. Finally, upon removal of the medium containing MTT, 200 µL of DMSO was added to each well.

[4] = test system: HCT 116 cells; test: MTT cytotoxicity assay, HCT 116; type: cell-based, human; conditions: for IC50: Homo sapiens, HCT-116, MTT, 72 h after treatment, mean ± SEM; for Selectivity index (IC50 normal cell line/IC50 cancer cell lines), HCT 116: MRC-5 / HCT 116, in brackets
Method: as §2, §3

[5] = test system: BxPC-3 cells; test: SRB assay, compound plus γ-radiation, BxPC-3; type: cell-based, human; conditions: IC50 concentration 24 h before 2 Gy γ-radiation, SRB 72 h after irradiation
Method: (§4) In the experiments involving irradiation, cells were irradiated at room temperature, in the vertical position with the cell monolayer facing ^60Co γ-rays (CIRUS-Cis Biointernational). The irradiation of samples was performed in Vinča Institute of Nuclear Sciences, Belgrade, Serbia. In all experiments, a clinically relevant radiation dose of 2 Gy with the dose rate of ~1 Gy/min was applied.
as §1, with “For” for “In the experiments involving irradiation, cells were irradiated at room temperature, in the vertical position with the cell monolayer facing ^60Co γ-rays (CIRUS-Cis Biointernational). The irradiation of samples was performed in Vinča Institute of Nuclear Sciences, Belgrade, Serbia. In all experiments, a clinically relevant radiation dose of 2 Gy with the dose rate of ~1 Gy/min was applied. For”

[6] = test system: BxPC-3 cells; test: MTT cytotoxicity assay, BxPC-3; type: cell-based, human; conditions: for IC50: Homo sapiens, BXPC-3, 72 h, MTT, 72 h after treatment, mean ± SEM; for Selectivity index (IC50 normal cell line/IC50 cancer cell lines), BxPC-3: MRC-5 / BxPC-3, in brackets
Method: as §2, §3

[7] = in vivo; conditions: in vivo
Method: (§5) Wild-type (AB) zebrafish embryos, kindly provided by Dr. Ana Cvejić (Wellcome Trust Sanger Institute, Cambridge, UK), were raised to adult stage in a temperature- and light-controlled zebrafish facility at 28 °C and a standard 14:10 h light–dark photoperiod. Fish were fed with commercial dry food (SDS200 and SDS300 granular food; Special Diet Services, Essex; UK and TetraMinTM flakes; Tetra Melle, Germany) twice a day, and with Artemia nauplii daily.
(§6) Embryos produced by pairwise mating were washed to remove debris, distributed at 10 per well into 24-well plates containing 1 mL of E3 medium (5 mM NaCl, 0.17 mM KCl, 0.33 mM CaCl2 and 0.33 mM MgSO4 in distilled water) and maintained at 28 °C. […] Dead embryos were recorded and discarded every 24 h. […] Experiments were performed in triplicate using 30 embryos for each concentration. At 120 hpf, embryos were anesthetized by the addition of 0.1% (w/v) tricaine solution (Sigma-Aldrich, St. Louis, MO, USA), photographed, and killed by freezing at −20 °C for ≥24 h.

[8] = test system: zebrafish (Danio rerio) embryos; test: in vivo; conditions: embryos exposed for five days, up to 50 µM; cardiotoxicity, hepatotoxicity, malformations
Method: as §5, §6

[9] = test system: SW620 cells; test: Wound-healing assay; type: cell-based, human; conditions: 25 μM
Method: The migratory potential of SW620 cells (human colon carcinoma cell line) was evaluated by a wound-healing assay. Cells were seeded in density of 300,000 cells per well in 24-well tissue culture microplates and grown for 24 h in DMEM medium supplemented with 10% FBS, penicillin/streptomycin and L-glutamine at 37 °C in a humidified atmosphere containing 5% CO2. Upon reaching confluence, a uniform wound was scratched into a monolayer of each well with a sterile plastic 200 μL micropipette tip. After wounding, the medium was replaced and cells were further treated with 25 μM of compounds 1, 2, 3, and 5 for 24 h and 48 h. Wound closure was monitored by imaging cells at 4× magnification using the ImageXpress® Pico Automated Cell Imaging System (Molecular Devices®, San Jose, CA, USA) immediately (T0), and at 24 h (T24) and 48 h (T48) after wounding. The captured images were analyzed by ImageJ software v. 1.52p (U.S. National Institutes of Health, Bethesda, MD, USA) to measure the degree of closure of the wounded area. Independent experiments were performed three times.

[10] = test system: MRC-5 cells; test: MTT cytotoxicity assay, MRC-5 normal fibroblasts; type: cell-based, human; conditions: Homo sapiens, MRC5, 72 h, MTT, 72 h after treatment, mean ± SEM; healthy cell line
[11] = test system: COX-2; parameters: method as in PMID 37111306; conditions: cited from earlier work
[12] = test system: HT-29 cells; test: SRB assay, compound plus γ-radiation, HT-29; type: cell-based, human; conditions: IC50 concentration 24 h before 2 Gy γ-radiation, SRB 72 h after irradiation
Method: as §4
For the evaluation of cell viability after treatments with radiation as well as after combined treatments, a sulforhodamine B (SRB) protein binding assay was used. This assay is based on the staining of cellular proteins. Maintaining conditions were identical to that of MTT assay. The cells were pretreated with IC50 concentrations of tested compounds for 24 h before irradiations. Following the 72 h post-irradiation incubation time under standard conditions (5% CO2, 37 °C) cells were fixed by protein precipitation with 10% trichloroacetic acid (TCA) at 4 °C for 1 h. Plates were rinsed with distillated water and stained with 0.4% SRB (Sigma-Aldrich Chemie GmbH, Steinheim, Germany) in 1% acetic acid, for 15 min at room temperature. Excess stain was removed by washing the wells in 1% acetic acid. After being rinsed, microwell plates were air dried until no staining moisture was visible. Bound dye was dissolved in 10 mM unbuffered Tris base (pH 10.5) for 5 min on a gyratory shaker. The absorbance of each well was measured using a microplate reader (Wallac VICTOR2 1420 Multilabel counter, PerkinElmer, Turku, Finland) at a test wavelength of 550 nm.

[13] = test system: 5-LOX; parameters: method as in PMID 37111306; conditions: cited from earlier work

SMILES | cell proliferation, combined treatment versus radiation alone, HCT 116 [1] | IC50 [2] [µM] | IC50 [3] [µM] | Selectivity index (IC50 normal cell line/IC50 cancer cell lines), HT-29 [3] | IC50 [4] [µM] | Selectivity index (IC50 normal cell line/IC50 cancer cell lines), HCT 116 [4] | cell proliferation, combined treatment versus radiation alone, BxPC-3 [5] | IC50 [6] [µM] | Selectivity index (IC50 normal cell line/IC50 cancer cell lines), BxPC-3 [6] | LC50 [7] [µM] | toxic response / adverse side effects in embryos [8] | Relative Wound Closure (%) 24 h ([9]; SW620, 24 h relative to T0, mean ± SEM, control 17.87 ± 3.48) | Relative Wound Closure (%) 48 h ([9]; SW620, 48 h relative to T0, mean ± SEM, control 24.51 ± 1.39) | IC50 [10] [µM] | IC50 [11] [µM] | cell proliferation, combined treatment versus radiation alone, HT-29 [12] | IC50 [13] [µM]
O=C(NO)NCc1ccccc1Nc1c(Cl)cccc1Cl [Compound 3] | lower in comparison to cells that were only irradiated | 169 ± 5.7 | 64.6 ± 3.41 | > 1.55 | 40.8 ± 1.95 | > 2.45 | significant change in cell inactivation | 34.3 ± 1.79 | > 2.91 | > 50 | did not elicit a toxic response; also recorded: no adverse side effects | 3.86% and 3.86 ± 0.19% | 7.68% and 7.68 ± 2.99% | > 100 | – | – | –
C=CCNC(=O)c1cc(C(C)(C)C)c(O)c(C(C)(C)C)c1 [Compound 6] | – | – | 24.8 ± 5.4 | > 4.04 | 23 ± 3.27 | > 4.35 | statistically significant change with respect to radiation | 8.63 ± 0.77 | > 11.59 | – | – | – | – | > 100 | 6.89 | statistically significant change with respect to radiation | –
C#CCNC(=O)c1cc(C(C)(C)C)c(O)c(C(C)(C)C)c1 [Compound 7] | – | – | > 100 | – | 30.2 ± 5.07 | > 3.31 | – | 29.2 ± 1.56 | > 3.42 | – | – | – | – | > 100 | – | significantly inactivated HT-29 cells | 12.6
